Measured values as given in ChEMBL document CHEMBL1142587, “Rhizochalin A, a novel two-headed sphingolipid from the sponge Rhizochalina incrustata” (J Nat Prod, 2005).
In brackets after ≈: the same amount, converted by molar mass.

System: Ehrlich
Assay: Cytotoxicity against mouse Ehrlich cells
Format: functional, cell-based

C[C@@H](N)[C@H](O)CCCCCCCC(=O)CCCCCCCCCCCCCC[C@@H](O[C@@H]1O[C@H](CO)[C@H](O)[C@H](O)[C@H]1O)[C@@H](C)N [RHIZOCHALIN] was tested. Which IC50 did it give?
The IC50 was 10 µg/mL (≈ 15.8 µM).
